Consider one compound from US20230131025A1, “QUINOLYL PHOSPHINE OXIDE COMPOUND, AND COMPOSITION AND APPLICATION THEREOF” (Betta Pharmaceuticals Co., Ltd., priority 2020, published 2023).

In experiment [1] the test system is Ba/F3-Δ19del/T790M/C797S-derived xenograft (CDX). Briefly: In vivo efficacy experiment, xenograft tumor growth. On the set-up: species or system BALB/c nude mice. On the procedure: In vivo efficacy experiments were performed on Ba/F3-Δ19del/T790M/C797S-derived xenograft (CDX) BALB/c nude mice. […] They were fed in an SPF environment, with each cage individually ventilated (6 mice per cage). […] Each mouse was subcutaneously inoculated with 0.1 mL cells (5×10^6 cells, the volume ratio of matrigel to cell was 1:1) on the right upper limb. When the tumor volume was about 150 mm^3, the grouped mice were separately administered with compound J-022 (10 mg/kg, 100 mg/kg, 150 mg/kg) orally QD for 15 consecutive days. Tumor diameters were measured with vernier calipers twice a week. The volume of tumor is calculated as: V=0.5a×b^2, wherein a and b represent the long diameter and short diameter of the tumor, respectively. The tumor growth inhibition rate TGI (%) was calculated to evaluate the tumor inhibitory effect of the compounds. TGI (%) was calculated with the following formula: TGI (%)=(1−(the average tumor volume of the compound treatment group at the end of the administration−the average tumor volume of the compound treatment group at the beginning of the administration)/(the average tumor volume of the solvent control group at the end of treatment−the average tumor volume of the solvent control group at the beginning of treatment))×100%.

Another experiment concerns the target Ba/F3-Δ19del/T790M/C797S (Homo sapiens, UniProt P00533, T790M/C797S, cells depend on it, form not given). Briefly: Cell proliferation experiment (CellTiter Glo, 72 hours). Format: cell-based. The following applies: read-out: Ba/F3/EGFR Δ19del/T790M/C797S IC50. In outline:
(§1)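 Ba/F3 cells overexpressing EGFR Δ19del/T790M/C797S or EGFR WT were seeded at 2000 or 3000 cells/well and exposed 72 h to 9 compound concentrations (3-fold, top 10000 or 1111 nM final, 0.1% DMSO). CellTiter-Glo luminescence gave survival inhibition versus controls; IC50 from nonlinear fit.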
On the technique in general: ATP-based viability assays read luminescence as a measure of living cells.

Another experiment addresses Ba/F3 EGFR WT (Homo sapiens, UniProt P00533). Described as above. Format: cell-based. The following applies: read-out: BaF3 EGFR WT IC50. In outline: as §1

Sequence of Ba/F3 EGFR WT (P00533 whole entry, change not shown): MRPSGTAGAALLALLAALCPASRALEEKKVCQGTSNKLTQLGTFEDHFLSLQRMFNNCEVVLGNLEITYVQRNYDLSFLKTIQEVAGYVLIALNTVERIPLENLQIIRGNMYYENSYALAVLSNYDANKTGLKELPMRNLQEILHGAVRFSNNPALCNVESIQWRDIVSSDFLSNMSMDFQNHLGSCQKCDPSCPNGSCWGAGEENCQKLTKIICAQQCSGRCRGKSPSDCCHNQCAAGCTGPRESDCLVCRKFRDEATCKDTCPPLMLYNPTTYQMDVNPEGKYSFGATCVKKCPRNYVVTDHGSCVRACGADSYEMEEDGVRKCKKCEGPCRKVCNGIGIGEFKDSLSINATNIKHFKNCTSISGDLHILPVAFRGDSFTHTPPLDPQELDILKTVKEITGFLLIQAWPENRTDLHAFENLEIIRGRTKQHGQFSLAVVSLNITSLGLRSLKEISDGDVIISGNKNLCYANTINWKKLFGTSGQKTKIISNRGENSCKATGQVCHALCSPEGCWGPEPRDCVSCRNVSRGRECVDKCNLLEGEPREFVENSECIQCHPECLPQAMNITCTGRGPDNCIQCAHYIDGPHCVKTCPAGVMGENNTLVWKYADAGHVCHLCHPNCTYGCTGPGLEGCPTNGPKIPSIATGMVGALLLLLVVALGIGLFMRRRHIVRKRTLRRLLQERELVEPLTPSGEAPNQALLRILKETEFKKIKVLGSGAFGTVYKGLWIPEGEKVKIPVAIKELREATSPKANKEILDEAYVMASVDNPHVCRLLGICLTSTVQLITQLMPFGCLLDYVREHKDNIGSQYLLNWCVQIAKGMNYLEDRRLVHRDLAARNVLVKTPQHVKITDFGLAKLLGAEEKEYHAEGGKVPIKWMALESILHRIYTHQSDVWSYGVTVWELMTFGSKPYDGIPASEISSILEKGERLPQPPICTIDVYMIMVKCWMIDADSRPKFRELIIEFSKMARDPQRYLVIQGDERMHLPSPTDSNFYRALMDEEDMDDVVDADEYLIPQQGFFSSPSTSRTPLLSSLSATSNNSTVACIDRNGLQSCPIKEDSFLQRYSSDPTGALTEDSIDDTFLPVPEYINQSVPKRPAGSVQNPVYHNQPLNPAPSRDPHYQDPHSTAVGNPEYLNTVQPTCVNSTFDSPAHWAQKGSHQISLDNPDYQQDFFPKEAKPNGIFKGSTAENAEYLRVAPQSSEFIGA
Sequence of Ba/F3-Δ19del/T790M/C797S (P00533 with tags, fused parts or gaps DEL746-750/T790M/C797S, form open): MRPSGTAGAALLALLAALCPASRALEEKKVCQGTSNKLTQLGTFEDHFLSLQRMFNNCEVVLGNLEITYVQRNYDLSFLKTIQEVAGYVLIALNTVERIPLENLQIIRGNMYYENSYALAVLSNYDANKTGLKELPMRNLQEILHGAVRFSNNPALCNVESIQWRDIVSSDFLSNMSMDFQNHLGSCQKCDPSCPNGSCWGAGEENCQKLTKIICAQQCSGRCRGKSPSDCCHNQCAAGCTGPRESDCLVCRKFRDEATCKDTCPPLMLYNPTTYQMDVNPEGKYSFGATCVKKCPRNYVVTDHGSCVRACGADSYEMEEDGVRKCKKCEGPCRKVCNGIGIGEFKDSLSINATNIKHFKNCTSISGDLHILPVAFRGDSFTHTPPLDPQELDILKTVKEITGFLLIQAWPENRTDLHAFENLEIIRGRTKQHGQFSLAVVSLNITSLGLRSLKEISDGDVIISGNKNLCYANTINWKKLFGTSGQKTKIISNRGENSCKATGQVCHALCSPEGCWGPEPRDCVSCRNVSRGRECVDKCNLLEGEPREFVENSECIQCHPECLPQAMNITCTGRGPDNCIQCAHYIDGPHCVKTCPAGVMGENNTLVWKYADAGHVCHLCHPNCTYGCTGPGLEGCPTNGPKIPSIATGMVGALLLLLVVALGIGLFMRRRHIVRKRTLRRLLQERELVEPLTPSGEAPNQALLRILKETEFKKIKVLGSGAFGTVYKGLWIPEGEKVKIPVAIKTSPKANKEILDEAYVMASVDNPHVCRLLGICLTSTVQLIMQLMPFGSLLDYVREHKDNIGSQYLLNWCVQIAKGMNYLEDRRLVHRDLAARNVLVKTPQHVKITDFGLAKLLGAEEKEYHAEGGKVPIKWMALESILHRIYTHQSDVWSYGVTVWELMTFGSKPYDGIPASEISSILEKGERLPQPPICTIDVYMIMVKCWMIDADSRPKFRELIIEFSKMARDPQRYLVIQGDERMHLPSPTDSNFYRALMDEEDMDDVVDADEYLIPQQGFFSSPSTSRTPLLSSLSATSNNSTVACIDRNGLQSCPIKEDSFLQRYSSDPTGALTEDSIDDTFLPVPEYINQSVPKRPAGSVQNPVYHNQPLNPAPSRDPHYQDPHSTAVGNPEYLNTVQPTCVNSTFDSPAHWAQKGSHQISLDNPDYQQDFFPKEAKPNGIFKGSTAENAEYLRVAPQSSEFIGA

For `COc1cc(N2CCC(N3CCN(C)CC3)CC2)c(C)cc1Nc1ncc(Br)c(Nc2ccc3nc(C4CC4)ccc3c2P(C)(C)=O)n1` [Compound J-022, (6-((5-Bromo-2-((2-methoxy-5-methyl-4-(4-(4-methylpiperazin-1-yl)piperidin-1-yl)phenyl)amino)pyrimidin-4-yl)amino)-2-cyclopropylquinolin-5-yl)dimethylphosphine oxide], the Tumor volume in experiment [1] (10 mg/kg/day oral QD, 0 day) turned out to be 152 mm^3; in experiment [1] (10 mg/kg/day oral QD, 3 day), 183 mm^3; in experiment [1] (10 mg/kg/day oral QD, 7 day), 321 mm^3; in experiment [1] (10 mg/kg/day oral QD, 10 day) it was 747 mm^3; in experiment [1] (10 mg/kg/day oral QD, 15 day), 1650 mm^3; in experiment [1] (100 mg/kg/day oral QD, 0 day) it was 151 mm^3. Also, the Tumor volume in experiment [1] (100 mg/kg/day oral QD, 3 day) came out at 99 mm^3; in experiment [1] (100 mg/kg/day oral QD, 7 day) it was 59 mm^3; in experiment [1] (100 mg/kg/day oral QD, 10 day), 0 mm^3; in experiment [1] (100 mg/kg/day oral QD, 15 day), 0 mm^3; in experiment [1] (150 mg/kg/day oral QD, 0 day) it was 152 mm^3; in experiment [1] (150 mg/kg/day oral QD, 3 day) it was 102 mm^3. Moreover, the Tumor volume stood at 4 mm^3 in experiment [1] (150 mg/kg/day oral QD, 7 day); 0 mm^3 in experiment [1] (150 mg/kg/day oral QD, 10 day); 0 mm^3 in experiment [1] (150 mg/kg/day oral QD, 15 day). For the same compound, the “15 day TGI %” value is 53% in experiment [1] (10 mg/kg/day oral QD, 15 consecutive days); 105% in experiment [1] (100 mg/kg/day oral QD, 15 consecutive days); 105% in experiment [1] (150 mg/kg/day oral QD, 15 consecutive days). Besides, in experiment [1] (100 mg/kg/day or 150 mg/kg/day, 15 consecutive days), the Tumor regression result is “tumor completely regressed”. The compound further came in with a half effective dose in experiment [1] (dose with TGI 53%) of 10 mg/kg/day. For the same compound, the GI50 at Ba/F3-Δ19del/T790M/C797S was determined as 6.8 nM; at Ba/F3 EGFR WT, 151 nM.
